This is an account of results in patent US20160031937A1, “NEURAL REGENERATION PEPTIDES AND USES THEREFOR” (CURONZ HOLDINGS COMPANY LIMITED, priority 2013, published 2016).

Assay [1] has as its system human W9-hESCs. Kind of assay: H2O2 induced oxidative stress injury, LDH detected cell death. It counts as cell-based. To be noted: for cell death reduced by (LDH): 50 μM H2O2, first 4 hours, corrected for basal injury; for reduced LDH release, net effect at 24 hours: H2O2 injury; for reduction of LDH detected cell death: between removal of H2O2 at 4 hours and 24 hours; for reduction of LDH release, net effect at 24 hours: H2O2. As for the experimental part: Experiments with human embryonic stem cells (hESC) were carried out in accordance with the guidelines and regulations of the NHMRC and with the approval of the Austin Health Human Research Ethics Committee (Approval number H2008/03194), and University of Melbourne Human Research Ethics Committee (Approval number 0605017). H9 (WA-09, WiCell) cell lines were grown as previously described (Dottori & Pera, 2007).
Briefly, hESC were cultured on mitomycin-C treated mouse embryonic fibroblasts (MEFs) in hESC medium consisting of high-glucose Dulbecco's Modified Eagle Medium (DMEM) without sodium pyruvate, supplemented with 1% insulin/transferrin/selenium, 0.1 mM β-mercaptoethanol, 1% nonessential amino acids (NEAA), 2 mM glutamine, 25 U/ml penicillin, 25 μg/ml streptomycin (all from Invitrogen) and 20% fetal calf serum (FCS) (Hyclone).
Alternatively, hESC were cultured on mitomycin-C treated human foreskin fibroblasts (HFF; ATCC, CRL-2097) in KSR media consisting of DMEM/nutrient mixture F-12, supplemented with 0.1 mM […], 1% nonessential amino acids (NEAA), 2 mM glutamine, 25 U/ml penicillin, 25 μg/ml streptomycin and 20% knockout serum replacement (all from Invitrogen).
All cells were cultured at 37° C. in 5% CO2 with 100% humidity. Colonies were mechanically dissected every 7 days (subcultivated or passaged) and transferred to freshly prepared MEFs or HFFs. Media was changed every second day.
(§1) Neuronal differentiation was achieved using the noggin induction method described for mouse neurospheres as adapted by Dottori for human neurospheres (Dottori & Pera, 2007). The colonies were maintained at 37° C., with 5% CO2 in hESC medium supplemented with 500 ng/ml of Noggin for 14 days while replacing Noggin every other day.
At this point, the cells were washed with PBS and the colonies were again mechanically dissociated, but this time the central (differentiated) part of the colony was also cut into smaller pieces using a 26-gauge needle. The pieces were transferred to individual wells in a low adherent 96-well plate containing Neurobasal®A (NBM) (Invitrogen) supplemented with 1× X B-27® (Invitrogen) and 1× N-2 (Invitrogen) 20 ng/ml human recombinant EGF and 20 ng/ml human recombinant bFGF (Pharmacia). Media was changed every 2 to 3 days to allow neurosphere formation over 2 weeks.
In order to facilitate neuronal differentiation, neurospheres were again separated into smaller pieces under a dissection microscope, and three to four pieces were transferred to each well of a 96-well plate. Prior to this transfer, the plate was pre-coated with poly-D-lysine (10 μg/ml in PBS), washed in PBS, recoated with mouse laminin (5 μg/ml in PBS), and washed again. The cells were then grown for 11 days (with media changed every two days) in NBM lacking growth factors prior to induction of injury and assessment of hypothermia.
On the day of experiments, the medium was changed to NBM+N2 containing a B27 preparation lacking the usual antioxidants (Invitrogen; 10889-038) to eliminate their confounding effects (NBM-AO).
The media was replaced with fresh NBM-AO and the cells were incubated for a further 20 hours containing drug, before again measuring LDH. Oxidative stress was induced by adding 50 μM fresh H2O2 (Sigma, H1009) to the growth factor negative NBM on initiation of the experiment with continued culture for 4 hours when LDH was measured and NBM-AO without H2O2 was returned to the culture which was maintained for a further 20 hours before again measuring LDH. […]
Measurement of lactate dehydrogenase activity (a marker of total cell death) and TUNEL staining (a marker of apoptotic death) was performed according to the kit manufacturer's instructions (Roche, 1164479001 and 11684795910 respectively).
Within experiments, each comparison was performed at least in triplicate and the mean of these values taken forward into group comparisons. […]

In assay [2] the test system is W9-hESCs. Put plainly: TUNEL staining for apoptotic cell death after OGD injury. It counts as cell-based, human. To be noted: 24 hours, 100 pM NRP2945. As for the experimental part:
as §1
At this point, the cells were washed with PBS and the colonies were again mechanically dissociated, but this time the central (differentiated) part of the colony was also cut into smaller pieces using a 26-gauge needle. The pieces were transferred to individual wells in a low adherent 96-well plate containing Neurobasal®A (NBM) (Invitrogen) supplemented with 1× X B-27® (Invitrogen) and 1× N-2 (Invitrogen) 20 ng/ml human recombinant EGF and 20 ng/ml human recombinant bFGF (Pharmacia). […]
To maintain isoosmotic pressure conditions, 25 mM 2-deoxy-D-glucose was added to NBM-AO medium and equilibrated for 30 minutes at room temperature before the initial media change as described above. […] Culture supernatant was removed after this 4 hour period and stored at 4° C. until analysed for lactate dehydrogenase (LDH) activity. […]
Tunnel positive cells, wells were imaged and the images re-coded independently before quantitation. No additional blinding was performed for the machine read LDH assay process.

The target of assay [3] is T1, homodimeric CXCR4 receptor (Homo sapiens, UniProt P61073).
T1 construct: host or cells: HEK293
T1 sequence (P61073 whole entry): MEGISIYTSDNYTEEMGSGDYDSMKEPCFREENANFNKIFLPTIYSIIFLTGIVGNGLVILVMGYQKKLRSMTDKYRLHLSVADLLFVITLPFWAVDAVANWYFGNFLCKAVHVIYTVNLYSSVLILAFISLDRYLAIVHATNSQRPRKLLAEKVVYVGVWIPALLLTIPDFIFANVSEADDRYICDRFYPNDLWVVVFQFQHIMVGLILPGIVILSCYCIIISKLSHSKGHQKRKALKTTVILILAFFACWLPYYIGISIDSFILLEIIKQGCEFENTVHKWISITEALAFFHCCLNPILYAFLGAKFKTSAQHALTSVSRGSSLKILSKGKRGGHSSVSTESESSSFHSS
Kind of assay: 125I-SDF-1 displacement binding study (CEREP). The conditions noted are these: recombinant homodimeric CXCR4 expressing HEK293 cells; unlabelled peptide in competition. Here is the method:
This was determined by radioactive ^125I-SDF-1 displacement studies using CXCR4 homodimeric receptors and unlabelled NNZ-4921 and NRP2945 in competition.

In assay [4] the test system is endogenous NRP gene expression. Put plainly: Endogenous NRP gene expression in human embryonic W9 stem cells. It counts as cell-based. To be noted: 100 fM NRP2945.

Square brackets hold non-standard residues; d marks the D form. Ends that are not written are not given here. Aib = CC(C)(N)C(=O)O

Take “Gly Arg Arg Ala Ala Pro Gly Arg Aib Gly Gly (GRRAAPGR[Aib]GG) [NRP2945, synthetic 11-mer peptidomimetic optimized for stability and pharmacokinetics]”: the “cell death reduced by (LDH)” value in assay [1] (1 pM NRP2945 at injury induction) is recorded as 35%; in assay [1] (1 fM NRP2945 at injury induction), 23.2%; in assay [1] (10 fM NRP2945 at injury induction), 40%; in assay [1] (100 fM NRP2945 at injury induction) it was 44%. The “reduced LDH release, net effect at 24 hours” value in assay [1] (1 pM NRP2945) worked out at 26%; in assay [1] (1 fM NRP2945), 27%; in assay [1] (10 fM NRP2945) it was 48%; in assay [1] (100 fM NRP2945), 47%. Besides, the “reduction of LDH detected cell death” value in assay [1] (10 fM NRP2945) stood at 70%; in assay [1] (100 fM NRP2945), 57%. In addition, the “reduction of LDH release, net effect at 24 hours” value in assay [1] (repeat experiment, 10 fM NRP2945 added at 0 hours) came to 48%; in assay [1] (repeat experiment, 10 fM NRP2945 added at 1 hour) it was 35%; in assay [1] (repeat experiment, 10 fM NRP2945 added at 3 hours (p≦0.124)) it was 23%; in assay [1] (repeat experiment, 100 fM NRP2945 added at 0 hours), 41%; in assay [1] (repeat experiment, 100 fM NRP2945 added at 1 hour) it was 39%; in assay [1] (repeat experiment, 100 fM NRP2945 added at 3 hours) it was 27%. The “reduction in cell death (LDH)” value in assay [1] (repeat experiment, first 4 hours of H2O2 injury, 10 fM NRP2945 added at 0 hours) was determined as 40%; in assay [1] (repeat experiment, first 4 hours of H2O2 injury, 10 fM NRP2945 administered one hour after injury induction) it was 35%; in assay [1] (repeat experiment, first 4 hours of H2O2 injury, 100 fM NRP2945 added at 0 hours), 37%; in assay [1] (repeat experiment, first 4 hours of H2O2 injury, 100 fM NRP2945 administered one hour after injury induction), 33%. Besides, in assay [1] (repeat experiment, first 4 hours of H2O2 injury, NRP2945 added 3 hours after injury induction (1 hour exposure)), the “effect on cell death (LDH)” value is recorded as “no significant beneficial effect”. Also, the “W9-hESCs protected from apoptotic cell death (TUNEL)” value in assay [2] was 23%. In addition, in assay [3], the “displacement of 125I-SDF-1 from homodimeric CXCR4 receptor” value is on record as “do not bind to the homodimeric CXCR4 receptor”. Besides, the “time to stimulated endogenous NRP gene expression after administration” value in assay [4] lay within 5 to 10 min.
